How the values were obtained:
[1] = target: ligand binding domain of the estrogen receptor beta chain (ERβLBD) that contained a point mutation at amino acid residue 418 (pm418) (Homo sapiens, UniProt Q92731); assay: ER agonist cell assay (ERβ), Huh-7 co-transfection, luciferase; assay type: cell-based; conditions: for ERβ % of Max E2 Response: percent of the maximum estradiol fold change, Huh-7, pG5luc and ERβLBD(pm418); for EC50: Huh-7 cells co-transfected with pG5luc and ERβLBD(pm418), overnight incubation, luciferase
Description: (§1) The compounds ability to mimic the effects of estrogen on the estrogen receptor were determined in a whole cell assay as described immediately below.
(§2) Experimental Procedure for ER Agonist Cell Assay
(§3) • Cell line and plasmids: The human hepatoma cell line Huh-7 was used for co-transfections. Cells were maintained in culture medium and split when they reached 80-90% confluency. Three plasmids were routinely used in the assay. pG5luc contained the firefly luciferase gene and was obtained from Promega. […] Cell Culture Media and Reagents:
(§4) Culture medium: DMEM (phenol red free), 10% charcoal treated HyClone serum, 1% L-glutamine, and 1% penicillin/streptomycin
(§5) Transfection medium: DMEM (phenol red free) and 10% charcoal treated HyClone serum
(§6) Luciferase reagents: Dual-Glo Luciferase Kit (Promega cat #E2980) was used for determination of luciferase activity.
(§7) Transient transfections were preformed using the lipophilic reagent FuGENE 6 (Roche). Cells were split and seeded at 7.2×10^6/150 cm^2 flask in 20 mL of transfection medium. 5-6 hrs later cells were co-transfected with either pG5luc and ERαLBD or pG5luc and ERβLBD(pm418). Transfected cells grew overnight and were then used the next day.
(§8) Cells transfected 24 hrs earlier were harvested, counted, and seeded in wells containing compound at a density of 1×10^4 cells/well. […] Cells were incubated overnight at 37° C. and 5% CO2 in the presence of compound. The following day medium was aspirated from the wells and 100 ul of Dual-Glo™ Luciferase Reagent were added to each well. Plates were incubated at room temperature for 20 minutes and firefly luminescence was measured on a luminometer. Next, 50 ul of Dual-Gbo™ Stop & Glo® Reagent were added to each well and after 20 minutes at room temperature the Renilla luminescence was measured on a luminometer. Values from each well were normalized by dividing the firefly luminescence by the Renilla luminescence. Estradiol was used as the standard and run in each assay. The fold induction over background for each compound was compared to the maximum fold induction for estradiol in each assay. […] Those compounds that were not tested, or the data was unavailable are marked as NT.

[2] = target: T1, ligand binding domain of the estrogen receptor alpha chain (ERαLBD) (Homo sapiens, UniProt P03372); assay: ER agonist cell assay (ERα), Huh-7 co-transfection, luciferase; assay type: cell-based; conditions: for EC50: Huh-7 cells co-transfected with pG5luc and ERαLBD, overnight incubation, luciferase; for ERα % of Max E2 Response: percent of the maximum estradiol fold change, Huh-7, pG5luc and ERαLBD
T1 construct: expressed in transfected cells; host or cells: Huh-7 human hepatoma cells, transient transfection with FuGENE 6
T1 sequence (P03372 311-547 limits assumed): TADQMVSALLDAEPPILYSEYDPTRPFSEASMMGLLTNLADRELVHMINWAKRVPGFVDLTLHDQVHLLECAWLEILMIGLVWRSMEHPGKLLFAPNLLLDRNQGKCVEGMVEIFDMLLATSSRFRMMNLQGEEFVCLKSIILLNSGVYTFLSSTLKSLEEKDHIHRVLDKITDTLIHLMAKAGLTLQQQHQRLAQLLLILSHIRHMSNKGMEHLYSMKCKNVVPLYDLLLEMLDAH
Description: as §1, §2, §3, §4, §5, §6, §7, §8

SMILES | ERβ % of Max E2 Response [1] | EC50 [2] | ERα % of Max E2 Response [2] | EC50 [1]
Oc1ccc(-c2noc(C3(C(O)c4ccccc4)CC3)c2-c2ccccc2)cc1 (racemic) [Example 16, (±)-4-{5-[1-(Hydroxy-phenyl-methyl)-cyclopropyl]-4-phenyl-isoxazol-3-yl}-phenol] | 2.37% | 44.3 nM | 63.2% | 
COCC1(c2onc(-c3ccc(O)cc3)c2-c2ccccc2)CC1 [Example 8, 4-[5-(1-Methoxymethyl-cyclopropyl)-4-phenyl-isoxazol-3-yl]-phenol] | 3.65% | 25.8 nM | 40.4% | 68.8 nM
CC(C)C(C)NCC1(c2onc(-c3ccc(O)cc3)c2-c2ccccc2)CC1 (racemic) [Example 24, (±)-4-(5-{1-[(1,2-Dimethyl-propylamino)-methyl]-cyclopropyl}-4-phenyl-isoxazol-3-yl)-phenol] | >0.860% | 12.6 nM | 30.9% | > 10000 nM
CC(C)OCC1(c2onc(-c3ccc(O)cc3)c2-c2ccccc2)CC1 [Example 3, 4-[5-(1-Isopropoxymethyl-cyclopropyl)-4-phenyl-isoxazol-3-yl]-phenol] | 1.32% | 97.1 nM | 32.2% | 568 nM
COCC(=O)OCC1(c2onc(-c3ccc(O)cc3)c2-c2ccccc2)CC1 [Example 53] | 79% | 45.6 nM | 85.4% | 71.1 nM
Oc1ccc(-c2noc(C3(CNc4cccc(C(F)(F)F)c4)CC3)c2-c2ccccc2)cc1 [Example 29, 4-(4-Phenyl-5-{1-[(3-trifluoromethyl-phenylamino)-methyl]-cyclopropyl}-isoxazol-3-yl)-phenol] | 0.601% |  | 11.4% | 
O=C(OC1CCCC1)C1(c2onc(-c3ccc(O)cc3)c2-c2ccccc2)CC1 [Example 89, 1-[3-(4-Hydroxy-phenyl)-4-phenyl-isoxazol-5-yl]-cyclopropanecarboxylic acid cyclopentyl ester] | >2.93% | 30.5 nM | 26% | > 10000 nM
O=C(OCC1CCC1)C1(c2onc(-c3ccc(O)cc3)c2-c2ccccc2)CC1 [Example 95, 1-[3-(4-Hydroxy-phenyl)-4-phenyl-isoxazol-5-yl]-cyclopropanecarboxylic acid cyclobutylmethyl ester] | >0.728% | 13.6 nM | 21.5% | > 10000 nM
CNCC1(c2onc(-c3ccc(O)cc3)c2-c2ccccc2)CC1 [Example 103, 4-[5-(1-methylaminomethyl-cyclopropyl)-4-phenyl-isoxazol-3-yl]-phenol] | 1.21% |  | 10.2% | 
Oc1ccc(-c2nnc(C3(c4onc(-c5ccc(O)cc5)c4-c4ccccc4)CC3)o2)cc1 [Example 124, 4-(5-{1-[5-(4-hydroxyphenyl)-1,3,4-oxadiazol-2-yl]cyclopropyl}-4-phenylisoxazol-3-yl)phenol] | >0.539% | 152 nM | 24.4% | > 10000 nM
CC(=O)C1(c2onc(-c3ccc(O)cc3)c2-c2ccccc2)CC1 [Example 101, 1-{1-[3-(4-Hydroxy-phenyl)-4-phenyl-isoxazol-5-yl]-cyclopropyl}-ethanone] | 13.6% | 122 nM | 58.3% | 
CC(=O)OCC1(c2onc(-c3ccc(O)cc3)c2-c2ccccc2)CC1 [Example 54] | 65.8% | 38.8 nM | 60.4% | 108 nM
CC(C)C(O)C1(c2onc(-c3ccc(O)cc3)c2-c2ccccc2)CC1 (racemic) [Example 17, (±)-4-{5-[1-(1-Hydroxy-2-methyl-propyl)-cyclopropyl]-4-phenyl-isoxazol-3-yl}-phenol] | 3.82% | 34.4 nM | 56.8% | 126 nM
CCCCOC(=O)C1(c2onc(-c3ccc(O)cc3)c2-c2ccccc2)CC1 [Example 94, 1-[3-(4-Hydroxy-phenyl)-4-phenyl-isoxazol-5-yl]-cyclopropanecarboxylic acid butyl ester] | >0.800% | 29.3 nM | 24.3% | > 10000 nM
Oc1ccc(-c2noc(C3(COCC(F)(F)F)CC3)c2-c2ccccc2)cc1 [Example 11, 4-{4-Phenyl-5-[1-(2,2,2-trifluoro-ethoxymethyl)-cyclopropyl]-isoxazol-3-yl}-phenol] | 1.98% | 171 nM | 23.4% | 14.7 nM
CC(=O)SCC1(c2onc(-c3ccc(O)cc3)c2-c2ccccc2)CC1 [Example 37, Thioacetic acid S-{1-[3-(4-hydroxy-phenyl)-4-phenyl-isoxazol-5-yl]-cyclopropylmethyl} ester] | 4.3% | 202 nM | 30.7% | 302 nM
Oc1ccc(-c2noc(C3(CSc4ccccc4)CC3)c2-c2ccccc2)cc1 [Example 40, 4-[4-Phenyl-5-(1-phenylsulfanylmethyl-cyclopropyl)-isoxazol-3-yl]-phenol] | 1.12% | 107 nM | 39.5% | 139 nM
CSCC1(c2onc(-c3ccc(O)cc3)c2-c2ccccc2)CC1 [Example 38, 4-[5-(1-Methylsulfanylmethyl-cyclopropyl)-4-phenyl-isoxazol-3-yl]-phenol] | 6.6% | 1130 nM | 11.4% | 749 nM
Oc1ccc(-c2noc(C3(CN4CCOCC4)CC3)c2-c2ccccc2)cc1 [Example 31, 4-[5-(1-Morpholin-4-ylmethyl-cyclopropyl)-4-phenyl-isoxazol-3-yl]-phenol] | 1.35% | 26.9 nM | 30% | 151 nM
CCOC(=O)C1(c2onc(-c3ccc(O)c(F)c3)c2-c2ccccc2)CC1 [Example 97, 1-[3-(3-Fluoro-4-hydroxy-phenyl)-4-phenyl-isoxazol-5-yl]-cyclopropanecarboxylic acid ethyl ester] | 1.08% |  | 19.7% | 

— patent publication US7470715B2, “Estrogen modulators” (Pfizer Inc., priority 2005, dated 2008)
